The source of these data is US10058493B2, “Oral care compositions and methods of use” (COLGATE-PALMOLIVE COMPANY, priority 2016, dated 2018).

Common to all, as to set-up: species or system human
Experiment [1] is described as follows: Buffering effect on pH of saliva following acid challenge with cola beverage. Conditions: cola titration; 0.0625% reagent; FIG. 2. The procedure:
(§1) Aqueous solutions containing arginine and zinc salts were created to carry out the following Examples. Solution 1 was prepared by mixing L-arginine (0.375 g), zinc oxide (ZnO, 0.25 g), and zinc citrate trihydrate (0.125 g) in deionized water (24.25 mL). These values correspond to the following percentages by mass: 1.5% L-arginine, 1% ZnO, 0.5% zinc citrate trihydrate. Additional control solutions were prepared of each regent alone at equal concentrations. Each solution was diluted to 25 g total mass with deionized water.
Paraffin-stimulated whole saliva was collected from a healthy subject. Each saliva sample was mixed by an appropriate means. Immediately prior to analysis, the ex-vivo saliva samples were pretreated with aliquots of Solution 1 to give a range of active dilutions. A control sample containing untreated whole saliva was also prepared for comparison. The dilutions were prepared as in Table 2.
The samples as described in Table 2 were tested for buffering effect on the pH of saliva following acid challenge with a cola beverage. Initial pH values of the treated samples were obtained. A cola beverage (1 mL) was added to the saliva sample. The resultant was mixed for 30 seconds at room temperature at the conclusion of which the pH of the sample was recorded. This process was repeated step-wise up to a total of 40 mL of cola. […]

The nature of experiment [2]: Buffering effect on pH of saliva following acid challenge with dilute hydrochloric acid. Conditions: 0.01 M HCl 6 mL; for acid buffering effect / pH of treated saliva after acid exposure: 20 min; for acid buffering effect: room temperature, Donors 1-3; for pH of treated saliva after acid exposure: all donors. The procedure:
as §1
Paraffin-stimulated whole saliva was collected from three healthy subjects (Donors 1-3). Each saliva sample was mixed by ordinary means in the art. Immediately prior to analysis, the ex-vivo saliva samples were pretreated with aliquots of the simple solutions to give a range of active dilutions (i.e., total Zn^2+ concentration of about 0-1500 ppm) including an untreated control. The concentrations of actives (i.e., zinc oxide/zinc citrate/arginine, L-arginine, zinc oxide, zinc citrate) were varied between 0.0% to 50% across all samples, as shown in FIGS. 5-10.
An initial pH of the treated sample was obtained. Dilute hydrochloric acid (HCl, 0.01 M, 6 mL) was added to each saliva sample. The resultant was mixed for 20 minutes at room temperature. The pH of the sample was recorded at the conclusion of the reaction time. Zinc concentration in each sample was determined by ICP-AES.

The nature of experiment [3]: Buffering effect on pH of saliva following sucrose challenge (bacterial acid production). Conditions: for effect on pH drop after sucrose challenge versus untreated control: Donors A-C, range of concentrations, 2, 4, 6 hours and overnight. The procedure:
as §1
Paraffin-stimulated whole saliva was collected from three healthy subjects (Donors A-C). Each saliva sample was mixed by ordinary means in the art. Prior to analysis, the ex-vivo saliva samples were pretreated with aliquots of the simple solutions to give a range of active dilutions (i.e., total Zn^2+ concentration of about 0-3000 ppm) including an untreated control in order to test for buffering effect against sucrose challenge as a function of zinc concentration. An initial pH of the treated sample was obtained. A sucrose solution (5%, 1 mL) was added to each saliva sample. The resultant was mixed for and then incubated at 37° C. and the pH was monitored at 2 hours, 4 hours, 6 hours, and overnight. Zinc concentration in each sample was determined by ICP-AES.
Further experiments were conducted to ensure that zinc oxide/zinc citrate/arginine, not its constituent parts, was needed to achieve the buffering capacity improvement described. The solutions tested were prepared according to the specifications as laid out in Table 3 above.

The nature of experiment [4]: Buffering effect on pH of saliva following acid challenge with orange juice. Conditions: 0.0625% reagent in saliva (Table 3); FIG. 4. The procedure: as §1
Four solutions containing whole saliva and zinc oxide/zinc citrate/arginine at varying proportions were prepared in accordance with the methods laid out in Example 1 above. The solutions contained the same concentrations as Samples 1-4 as defined in Table 2. The samples were tested for buffering effect on the pH of saliva following acid challenge with orange juice. Initial pH values of the treated samples were obtained. Orange juice (0.1 mL) was added to the saliva sample. The resultant was mixed for 30 seconds at room temperature at the conclusion of which the pH of the sample was recorded. This process was repeated step-wise up to a total of 3.0 mL of orange juice. After this point, orange juice was added to the samples in an amount of 0.5 mL up to 5.0 mL. […]

Entries after “also recorded” stand apart in the source; their conditions may differ.

In the case of `N=C(N)NCCC[C@H](N)C(=O)O` [arginine, L-arginine], the “shift of isoelectric point in comparison to the untreated sample” value in experiment [1] is “acid shifted the isoelectric point in comparison to the untreated sample providing no acid neutralization benefit”. In experiment [2] (FIGS. 5-7), the “amount of solution able to match the buffering effect of 200 μL or less zinc oxide/zinc citrate/arginine” value is more than 500 µL. Besides, the “buffering effect of the 100 ppm arginine solution” value in experiment [3] (donor C, FIG. 14) is listed as “modest buffering was observed”; in experiment [3] (donors A or B, FIGS. 12-13) it was “not seen”.
For the compound `O.O.O.O=C([O-])CC(O)(CC(=O)[O-])C(=O)[O-].O=C([O-])CC(O)(CC(=O)[O-])C(=O)[O-].[Zn+2].[Zn+2].[Zn+2]` [zinc citrate, zinc citrate trihydrate], the “shift of isoelectric point in comparison to the untreated sample” value in experiment [1] is recorded as “acid shifted the isoelectric point in comparison to the untreated sample providing no acid neutralization benefit”. Besides, the “ability to buffer the acidic orange juice compared with controls” value in experiment [4] was “no benefit in comparison the untreated control”. In addition, the acid buffering effect result in experiment [2] (FIGS. 5-7) is reported as “little to no buffering effect at all”. Further, the “pH of treated saliva after acid exposure” value in experiment [2] was “below 4.0”. Besides, the “effect on pH drop after sucrose challenge versus untreated control” value in experiment [3] is recorded as “Buffering effects were observed over the untreated control of each of the donors”.
With `[O]=[Zn]` [zinc oxide], the acid buffering effect entry in experiment [2] (FIGS. 5-7) is given as “some pH stabilization; also recorded: not showing a dose response above 0.1% treatment”. Also, the “pH of treated saliva after acid exposure” value in experiment [2] was “lower in saliva treated with ZnO than zinc oxide/zinc citrate/arginine treated saliva”. Also, the “effect on pH drop after sucrose challenge versus untreated control” value in experiment [3] is recorded as “Buffering effects were clearly observed over the untreated control of each of the donors”.
